Measured values as given in patent publication US20160152566A1, “TRICYCLIC PYRROLE COMPOUNDS, THEIR PREPARATION AND USE IN MEDICAMENTS” (INSTITUTO BIOMAR, S.A., priority 2013, published 2016).

Experiments:
[1] = tested on: BAE cells; experiment: MTT dye reduction cell growth assay, BAE cells; type: cell-based, Bovine; conditions: Bos taurus, 72 h, subconfluent BAE cells stimulated with 10% FBS, 3 days, read-out: IC50, growth of cultured BAE cells
Method: The 3-(4,5-dimethylthiazol-2-yl)-2,5 diphenyltetrazolium bromide (MIT; Sigma Chemical Co., St. Louis, Mo.) dye reduction assay in 96-well microplates was used. The assay is dependent on the reduction of MTT by mitochondrial dehydrogenases of viable cell to a blue formazan product, which can be measured spectrophotometrically.
3×10^3 BAE cells in a total volume of 100 μl of complete medium were incubated in each well with serial dilutions of the compound AD0157 obtained as explained above. After 3 days of incubation in the dark (37° C., 5% CO2 in a humid atmosphere), 10 μl of MTT (5 mg/ml in PBS) was added to each well and the plate was incubated for further 4 h (37° C.). The resulting formazan was dissolved in 150 μl of 0.04 N HCl-2 propanol and read at 550 nm. All determinations were carried out in triplicate, independent experiments. IC50 values were calculated as those concentrations of AD0157 yielding 50% cell survival, taking the values obtained for control as 100%.

[2] = tested on: endothelial and tumor cells; experiment: Hoechst staining of nuclear morphology; type: cell-based; conditions: 14 h treatment, endothelial and most types of tumor cells
Method: For Hoechst staining experiments, cells were seeded on 8-well chamber slides and grown to sub-confluence. After treatments for 14 h with the indicated concentrations of the compound in complete medium, cells were washed (PBS) and fixed (formalin solution, Sigma). Chamber slides were stained with Hoechst, mounted (DAKO Cytomation Fluorescent Mounting Medium, DAKO), and observed under a fluorescence microscope (Leica, TCS-NT).

[3] = tested on: BAE cells; experiment: Capillary tube formation on Matrigel; type: cell-based, Bovine; conditions: BAECs, 7 h
Method: (§1) Matrigel (50 μL of about 10.5 mg/mL) at 4° C. was used to coat each well of a 96-well plate and allowed to polymerise at 37° C. for a minimum of 30 min. 5×10^4 BAE cells were added with 200 μL DMEM. Finally, different amounts of the Compound AD0157 were added and incubated at 37° C. in a humidified chamber with 5% CO2. After incubation for 7 h, cultures were observed (40× and 100× magnifications) and photographed with a NIKON inverted microscope DIAPHOT-TMD (Nikon, Tokyo, Japan). Each concentration was tested in duplicate, and two different observers evaluated the inhibition of tube formation. To check the viability of endothelial cells after the treatment with the compounds in this assay, BAE cells were incubated in 96-well plate in the same conditions employed for the tube formation assay. After 7 h, cell viability in comparison to control untreated cells was determined by the addition of MTT essentially as described for the cell growth assay.

[4] = tested on: BAE cells; experiment: Viability (MTT) under tube formation conditions; type: cell-based, Bovine; conditions: 7 h, at the concentrations used to inhibit differentiation
Method: as §1

[5] = tested on: BAE cells; experiment: Tube formation with Cytodex beads on Matrigel; type: cell-based, Bovine; conditions: 48 h
Method: 3×10^4 BAE cells, were cultured with Cytodex beads, and allowed to adhere to them. The beads were added in 200 μL DMEM per well to a 96-well plate that has been previously prepared as follows: different amounts of the compound AD0157 were dispensed in a 96 well plate. Matrigel (50 μL) at 4° C. was used to coat each well of and allowed to polymerise at 37° C. for a minimum of 30 min. After polymerization, the beads carrying the endothelial cells were added to the wells. The plate was incubated at 37° C. in a humidified chamber with 5% CO2. After incubation for 48 h, cultures were observed using an optical microscope. Each concentration was tested in triplicate. Inhibition of tube formation was obtained at 9.3 uM.

[6] = tested on: HT1080 MMP-2; experiment: Gelatin zymography, HT1080 cells, MMP-2; type: cell-based, Human; conditions: 24 h
Method: BAE or HT1080 cells were grown in 6-well plates at 75% subconfluency in 6-well plates, medium was aspirated, cells were washed twice with phosphate-buffered saline (PBS) and each well received 1.5 ml of DMEM/0.1% BSA containing 200 KIU of Aprotinin/mL. Additionally, some wells received the indicated concentration of AD0157. After 24 h of incubation, conditioned media were collected. To obtain the cell extracts, the cells were washed twice with PBS and harvested by scrapping into 0.5 mL of 0.2% Triton X-100 in 0.1 M Tris/HCl containing 200 KIU aprotinin/mL. Media were centrifuged at 1000×g and 4° C. for 20 min, and used for zymography. Duplicates were used to determine cell number with a Coulter counter.
The gelatinolytic activity of MMP-2 delivered to the conditioned media and cell extracts were detected in gelatinograms. Samples were subjected to non-reducing SDS/PAGE as above but with gelatin (1 mg/mL) added to the 10% resolving gel. After electrophoresis, gels were washed twice with 50 mM Tris/HCl, pH 7.4, supplemented with 2% Triton X-100, and twice with 50 mM Tris/HCl, pH 7.4. […] Then, the gels were stained with Commassie blue R-250 and the bands of gelatinase activity could be detected as non-stained bands in a dark, stained background.
Quantitative analysis of zymograms and gelatinograms was performed with the Scion Image 4.0.3.2 Program.

[7] = tested on: HT1080 MMP-9; experiment: Gelatin zymography, HT1080 cells, MMP-9; type: cell-based, Human; conditions: 24 h
[8] = tested on: chick chorioallantoic membrane; experiment: Chick chorioallantoic membrane (CAM) angiogenesis assay; type: in vivo; conditions: 48 h
Method: Fertilised chick eggs were incubated horizontally at 38° C. in a humidified incubator, windowed by day 3 of incubation, and processed by day 8. The tested compound stock solution was added to a 1.2% solution of methylcellulose in water, and 10 μL drops of this solution were allowed to dry on a teflon-coated surface in a laminar flow hood. Then, the methylcellulose discs were implanted on the CAM, the eggs were sealed with adhesive tape and returned to the incubator for 48 h. Negative controls were always made with DMSO mixed with the methylcellulose. After the reincubation, the CAM was examined under a stereomicroscope. The assay was scored as positive when two independent observers reported a significant reduction of vessels in the treated area.

[9] = tested on: zebrafish intersegmental vessels; experiment: Zebrafish embryo intersegmental vessel assay (TGfli1:EGFPy1); type: in vivo; conditions: 24 h
Method: Zebrafish embryos were generated by natural pairwise mating and maintained in embryo water at 28.5° C. […] Embryos were manually dechorionated with forceps at 24 h post-fertilization (hpf), they were arrayed in 96-well plate, one embryo per well, and incubated with 100 μl of the indicated concentrations of the tested compounds at 28.5° C. for 24 h. DMSO was used as both carrier of drugs and control. After incubation, fish embryos were anesthetized with tricaine (0.02%), placed on slides and examined under an epifluorescence Nikon microscope equipped with DS-L1 Nikon digital camera. Phenotypic changes were evaluated by two different observers.

C/C=C/C(=O)C1(O)CC2CC(C(=O)O)CC(C)C2C1C(=O)C1=C(/C=C/C)C(=O)C2(Cl)C3(CCCCCC)C(=O)NC(=O)C23C1=O (stereo not shown) [AD0157]
IC50 [1]: 10.9 µM
Concentration inducing chromatin condensation [2]: above 5 μM
Concentration giving complete inhibition of endothelial morphogenesis on Matrigel [3]: 5 µM
Concentration giving partial inhibition of endothelial morphogenesis on Matrigel [3]: 1 µM
Viability of endothelial cells [4]: did not affect the viability
Concentration giving inhibition of tube formation [5]: 9.3 µM
MMP-2 levels in HT1080 conditioned media and cellular extracts [6]: no effect
MMP-9 levels in HT1080 conditioned media and cellular extracts [7]: no effect
% Inhibition ([8]; 0.1 nmol/CAM): 20%
Positive/total ([8]; 0.1 nmol/CAM): 1/5
% Inhibition ([8]; 0.5 nmol/CAM): 83%
Positive/total ([8]; 0.5 nmol/CAM): 5/6
% Inhibition ([8]; 1 nmol/CAM): 100%
Positive/total ([8]; 1 nmol/CAM): 6/6
% Inhibition ([8]; 5 nmol/CAM): 100%
Positive/total ([8]; 5 nmol/CAM): 6/6
% Inhibition ([9]; 5 μM): 25%
Positive/total ([9]; 5 μM): 5/20
% Inhibition ([9]; 10 μM): 48%
Positive/total ([9]; 10 μM): 12/25
% Inhibition ([9]; 25 μM): 85%
Positive/total ([9]; 25 μM): 17/20
